Here are results for 11 compounds from patent publication US20050107616A1, “Alpha-ketoamide derivatives as cathepsin k inhibitors” (priority 2001, published 2005).

SMILES strings stand for the structures.

In this assay the target is T1, human cathepsin K (Homo sapiens, UniProt P43235).
T1 construct: The proform of cathepsin K was converted to mature cathepsin K by brief exposure to pH 4; made in house; host or cells: baculovirus; Trichoplusia ni High Five cells (virus raised in Sf-9)
T1 sequence (P43235 115-329): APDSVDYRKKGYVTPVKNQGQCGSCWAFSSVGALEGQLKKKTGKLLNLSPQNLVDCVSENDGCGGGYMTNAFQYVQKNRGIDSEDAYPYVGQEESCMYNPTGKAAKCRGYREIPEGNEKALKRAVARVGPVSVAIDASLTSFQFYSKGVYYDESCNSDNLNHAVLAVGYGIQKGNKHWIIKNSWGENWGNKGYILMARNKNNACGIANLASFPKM
In words: Cathepsin K inhibition assay, fluorogenic substrate Cbz-Phe-Arg-AMC, progress curve method. It counts as biochemical. The note with it: Table 1; human recombinant enzyme, pH 5.5, 30° C., 10 μM substrate; read-out: hCat K Ki. As to the method: All assays for cathepsin K were carried out with human and rat recombinant enzyme. Assays for cathepsins S Et V were also carried out with human recombinant enzyme. Assays for human cathepsins B. H. and L were carried out with enzyme, purchased from Athens Research and Technology, Inc., prepared from human liver tissue. […] A stock substrate solution of Cbz-Phe-Arg-AMC was prepared at a concentration of 50 mM in dimethyl sulfoxide. This substrate was diluted into the assay for a final substrate concentration of 10 μM in the rat cathepsin K, human cathepsin K, and human cathepsin B assays; a final substrate concentration of 5 μM in the human cathepsin L assay; and a final substrate concentration of 2 μM in the human cathepsin V assay.
All assays contained 10% dimethyl sulfoxide. […] All assays were conducted at 30° C. Product fluorescence (excitation at 360 nm; emission at 440 nm, (except cathepsin H which used excitation at 340 nm; emission at 420 nm)) was monitored with a PerSeptive Biosystems Cytofluor II fluorescence plate reader. Product progress curves were generated over 2.3 h monitoring the formation of 7-amino-4-methylcoumarin product (or β-naphthalamide for cathepsin H).
Two liters of Spodoptera frugiperda (Sf-9) cells (ATCC) were grown in Grace's Supplemented medium (Life Technologies) supplemented with 2 g/L glucose, 10% a fetal bovine serum (HyClone) and 0.10% pluronic F-68 (Life Technologies). […] The cells continued to grow for 72 h post-infection, before the virus was harvested by centrifugation at 1400× g for 30 min.
One and one-half liters of Trichoplusia ni (T. ni) High Five (TM) cells [JRH Biosciences, Woodland, Calif. […] Media were separated from cells at a rate of 1 L/min using the Centritech 100 (TM) continuous-flow centrifuge (DuPont) operating at 200× g.
Protein Purification: Media (human and rat) were filtered through a Whatman 3 filter, and then loaded onto a 25 mL Poros HS II (26 mm×47 mm) cation exchange column equilibrated in 25 mM sodium acetate at pH 5.5 (equilibration buffer). The column was washed until the absorbance reached the baseline value, and then the protein was eluted with a linear gradient from 0-2 M sodium chloride in the equilibration buffer. Column fractions were analyzed by SDS-PAGE, N-terminal sequencing, and mass spectrometry. Fractions containing the proform of cathepsin K were pooled and frozen at −80° C. The proform was concentrated in an Amicon Centriprep 10 and fractionated with a Superdex 75 column (26 mm×600 mm, Pharmacia) equilibrated in 400 mM sodium chloride, 25 mM sodium acetate at pH 5.5.
Cathepsin K Activation: The proform of cathepsin K was converted to mature cathepsin K by brief exposure to pH 4 in the presence of 5 mM L-cysteine. Typically, 5 mM L-cysteine was added to 10 mL of approximately 1 mg/mL procathepsin K. One mL of this solution was diluted ten-fold into 450 mM sodium acetate at pH 4.0 containing 5 mM L-cysteine. This solution was reacted at 23° C. for 2 min before neutralization with 2 mL 1.8 M sodium acetate at pH 6.0. The neutralized sample was added to the remaining 9 mL of procathepsin K. The mixture was incubated at 4° C. for 2-3 days. The activated cathepsin K was chromatographed on a Poros HS II column as described above.
Potential inhibitors were evaluated using the progress curve method. Assays were carried out in the presence of variable concentrations of test compound. Reactions were initiated by addition of buffered solutions of inhibitor and substrate to enzyme. Data analysis was conducted according to one of two procedures depending on the appearance of the progress curves in the presence of inhibitors. […] Ki values were calculated from IC50 values using equation 2 assuming a competitive model. [formula]
As a reminder, the Ki is the dissociation constant of the complex between target and ligand, obtained from inhibition or displacement. As to `CCCC[C@H](NC(=O)O[C@@H](Cn1ccc(-c2ccc(C(F)(F)F)cc2)n1)C(C)(C)C)C(=O)C(=O)Nc1ccn[nH]1` [Example 2, (1R)-2,2-dimethyl-1-({3-[4-(trifluoromethyl)phenyl]-1H-pyrazol-1-yl}methyl)propyl(1S)-1-[oxo(1H-pyrazol-3-ylamino)acetyl]pentylcarbamate], the Ki is 1 to 100 nM.

Regarding `CCCC[C@H](NC(=O)O[C@H](Cc1nnc(-c2ccc(C(F)(F)F)cc2)o1)C(C)(C)C)C(=O)C(=O)Nc1ccn[nH]1` [Example 3], the Ki is 0.01 to 1 nM.

Turning to `CCCC[C@H](NC(=O)O[C@H](Cc1nnc(-c2ccc(F)cc2)o1)C(C)(C)C)C(=O)C(=O)NCc1cccnc1` [Example 4, (1R)-1-{[5-(4-fluorophenyl)-1,3,4-oxadiazol-2-yl]methyl}-2,2-dimethylpropyl(1S)-1-{oxo[(3-pyridinylmethyl)amino]acetyl}pentylcarbamate], the Ki lay in the range of 1 to 100 nM.

With `CCCC[C@H](NC(=O)O[C@H](Cn1ccc(-c2ccc(C(F)(F)F)cc2)n1)C(C)(C)C)C(=O)C(=O)Nc1ccccn1` [Example 5, (1S)-2,2-dimethyl-1-({3-[4-(trifluoromethyl)phenyl]-1H-pyrazol-1-yl}methyl)propyl(1S)-1-[oxo(2-pyridinylamino)acetyl]pentylcarbamate], the Ki lay in the range of 1 to 100 nM.

Regarding `CCCC[C@H](NC(=O)O[C@H](Cn1cnc(-c2ccc(F)cc2)c1)C(C)(C)C)C(=O)C(=O)N[C@H](C)c1ccccc1` [Example 6, (1S)-1-{[4-(4-fluorophenyl)-1H-imidazol-1-yl]methyl}-2,2-dimethylpropyl (1S)-1-(oxo{[(1R)-1-phenylethyl]amino}acetyl)pentylcarbamate], the Ki is 0.01 to 1 nM.

With `CCCC[C@H](NC(=O)O[C@H](Cc1nnc(-c2ccccc2)o1)C(C)(C)CC)C(=O)C(=O)N[C@H](C)c1ccccc1` [Example 8, (1R)-2,2-dimethyl-1-[(5-phenyl-1,3,4-oxadiazol-2-yl)methyl]butyl (1S)-1-(oxo{[(1R)-1-phenylethyl]amino}acetyl)pentylcarbamate], the Ki was 1 to 100 nM.

On to `CCCC[C@H](NC(=O)O[C@@H](Cc1nnc(-c2ccccc2)o1)C(C)(C)CC)C(=O)C(=O)N[C@H](C)c1ccccc1` [Example 9, (1S)-2,2-dimethyl-1-[(5-phenyl-1,3,4-oxadiazol-2-yl)methyl]butyl(1S)-1-(oxo{[(1R)-1-phenylethyl]amino}acetyl)pentylcarbamate], for which the Ki is 100 to 10000 nM.

Take `CCCC[C@H](NC(=O)O[C@H](Cc1nnc(-c2ccccc2)o1)C(C)C)C(=O)C(=O)N[C@H](C)c1ccccc1` [Example 10, (1R)-2-methyl-1-[(5-phenyl-1,3,4-oxadiazol-2-yl)methyl]propyl(1S)-1-(oxo{[(1R)-1-phenylethyl]amino}acetyl)pentylcarbamate]: the Ki was 0.01 to 1 nM.

On to `CCCC[C@H](NC(=O)O[C@@H](Cc1nnc(-c2ccccc2)o1)C(C)C)C(=O)C(=O)N[C@H](C)c1ccccc1` [Example 11, (1S)-2-methyl-1-[(5-phenyl-1,3,4-oxadiazol-2-yl)methyl]propyl(1S)-1-(oxo{[(1R)-1-phenylethyl]amino}acetyl)pentylcarbamate], for which the Ki fell in the range of 100 to 10000 nM.

`CCCC[C@H](NC(=O)O[C@H](Cn1cnc(-c2ccccc2)c1)C(C)(C)C)C(=O)C(=O)N[C@H](C)c1ccccc1` [Example 12, (1S)-2,2-dimethyl-1-[(4-phenyl-1H-imidazol-1-yl)methyl]propyl(1S)-1-(oxo{[(1R)-1-phenylethyl]amino}acetyl)pentylcarbamate]: the Ki lay in the range of 0.01 to 1 nM.

Turning to `CCCC[C@H](NC(=O)O[C@@H](Cn1cnc(-c2ccccc2)c1)C(C)(C)C)C(=O)C(=O)N[C@H](C)c1ccccc1` [Example 13, (1R)-2,2-dimethyl-1-[(4-phenyl-1H-imidazol-1-yl)methyl]propyl(1S)-1-(oxo{[(1R)-1-phenylethyl]amino}acetyl)pentylcarbamate], the Ki fell in the range of 100 to 10000 nM.
